Patent US20100247489A1, “USE OF A COMPOSITION MADE OF MINERAL NUTRIENTS AND OPTIONALLY ACETOGENIC AND/OR BUTYROGENIC BACTERIA IN ORDER TO AVOID OR REDUCE THE FORMATION OF GAS IN THE LARGE INTESTINE OF A MAMMAL AND THE RESULTING ABDOMINAL PROBLEMS” (priority 2006, published 2010)

Experiments:
[1] = tested on: Feces samples from 20 persons; assay: Incubation of homogenized feces samples with fructose and minerals, gas-meter (Example 3); set-up: species or system human; settings: 1 g fructose per 100 g of feces; for reduction in the amount of gas, in words: 20 feces samples; for amounts of gas: incubated at 37°, control 150 ml
Experimental: The incubation containers were all added with 1 g fructose per 100 g of feces, and additionally with 1. Selenium 20 μg; 2. 40 μg tungsten, 3. […] 20 μg Selenium plus 40 μg molybdenum; 6. 40 μg Selenium plus 20 μg tungsten plus 1 drop multivitamin solution “Multibionta”, 7. 40 μg Selenium plus 20 μg tungsten plus 1 drop multivitamin solution “Multibionta” plus 1 mg of iron plus 20 μg nickel. A control tank was added only with fructose.
The incubation containers were fitted with a gas-meter, sealed gas-tight and incubated at 37°.

meteorism = assay: Person with meteorism after fiber-rich meals (Examples 15 and 16); format: in vivo, human; settings: 1.5 mg three times daily in water, after one week of treatment
Experimental: A person who suffers from meteorism after eating fiber-rich meals is treated three times daily with 1.5 mg of sodium tungstate, which is dissolved in water administered with the drinking fluid during the main meals.
A person who suffers from meteorism after eating fiber-rich meals is treated three times daily with 1.5 mg of sodium tungstate, which is dissolved in 100 ml water with the addition of 100 mg phytic acid and is allowed to rest for 30 minutes, and is administered to the main meals with the drinking fluid.

| Compound | reduction in the amount of gas, in words [1] | amounts of gas [1] | meteorism (meteorism) |
| --- | --- | --- | --- |
| [W] [W, tungsten] | significant gas reduction | 100 mL |  |
| Selenium | significant gas reduction | 110 mL |  |
| [Na+].[Na+].[O]=[W](=[O])([O-])[O-] [sodium tungstate] |  |  | significantly decreases |
